From publication PMC10987797, “Functional characterization of Capsicum chinense vanillin aminotransferase: Detection of vanillylamine-forming activity from vanillin” (Biochemistry and Biophysics Reports, 2024)

Legend:
Type in all cases: biochemical
[1] = biological target: T1, VAMT (vanillin aminotransferase; rVAMT) (Capsicum chinense, UniProt O82521); assay: HPLC assay of vanillin formation, Michaelis-Menten fit; conditions: 0.1 mM PLP, 50 mM potassium phosphate pH 8.0, standard assay 30 °C
T1 construct: full length, N-terminal His6-tag (pET28a) cut off by thrombin; recombinant from E. coli Rosetta2 (DE3)
Text: HPLC assay of vanillin formation, Michaelis-Menten fit on VAMT (vanillin aminotransferase; rVAMT)

[2] = biological target: T1, VAMT (vanillin aminotransferase; rVAMT); assay: HPLC assay of vanillylamine formation, Michaelis-Menten fit; conditions: 0.1 mM PLP, 50 mM potassium phosphate pH 8.0, standard assay 30 °C, ping-pong
Text: HPLC assay of vanillylamine formation, Michaelis-Menten fit on VAMT (vanillin aminotransferase; rVAMT)

[3] = biological target: T1, VAMT (vanillin aminotransferase; rVAMT); assay: HPLC assay of vanillylamine glucoside formation, Michaelis-Menten fit; conditions: 100 mM GABA as amino donor, 0.1 mM PLP, 50 mM potassium phosphate pH 8.0; standard assay 30 °C
Text: HPLC assay of vanillylamine glucoside formation, Michaelis-Menten fit on VAMT (vanillin aminotransferase; rVAMT)

[4] = biological target: T1, VAMT (vanillin aminotransferase; rVAMT); assay: HPLC assay of vanillin glucoside formation, Michaelis-Menten fit; conditions: 100 mM pyruvate as amino acceptor, 0.1 mM PLP, 50 mM potassium phosphate pH 8.0; standard assay 30 °C
Text: HPLC assay of vanillin glucoside formation, Michaelis-Menten fit on VAMT (vanillin aminotransferase; rVAMT)

T1 sequence (O82521 whole entry): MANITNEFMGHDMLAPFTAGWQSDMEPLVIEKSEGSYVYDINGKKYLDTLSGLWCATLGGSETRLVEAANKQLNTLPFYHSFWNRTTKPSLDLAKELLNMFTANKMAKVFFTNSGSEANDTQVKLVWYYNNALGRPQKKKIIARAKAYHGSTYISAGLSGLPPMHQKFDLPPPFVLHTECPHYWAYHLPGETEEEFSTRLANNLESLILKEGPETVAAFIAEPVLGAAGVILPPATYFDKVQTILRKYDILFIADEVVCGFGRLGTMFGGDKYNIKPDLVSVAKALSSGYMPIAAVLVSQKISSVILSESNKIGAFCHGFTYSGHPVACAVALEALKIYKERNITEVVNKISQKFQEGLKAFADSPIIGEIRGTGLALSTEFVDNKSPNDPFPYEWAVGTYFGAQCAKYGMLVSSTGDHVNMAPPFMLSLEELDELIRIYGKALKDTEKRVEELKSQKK

In the case of `CC(=O)C(=O)O` [Na pyruvate], the Km ([1]; 5 mM vanillylamine as amino donor) is reported as 5.4 ± 0.34 mM.

`COc1cc(C=O)ccc1O` [V] gave a Km ([2]; 100 mM GABA as amino donor) of 0.48 ± 0.049 mM.

`COc1cc(C=O)ccc1O[C@@H]1O[C@H](CO)[C@@H](O)[C@H](O)[C@H]1O` [VG] gave a Km [3] of 3.3 ± 0.56 mM.

For `COc1cc(CN)ccc1O` [VA], the Km ([1]; 100 mM pyruvate as amino acceptor) was 0.25 ± 0.037 mM.

For `COc1cc(CN)ccc1O[C@@H]1O[C@H](CO)[C@@H](O)[C@H](O)[C@H]1O` [VAG], the Km [4] was 15 ± 4.8 mM.

Work on `NCCCC(=O)O` [GABA] yielded a Km ([2]; 5 mM vanillin as amino acceptor) of 36 ± 2.1 mM.
